The text below walks through data of US20260216144A1, “TARGETING MB2 OF THE MYC ONCOGENE AND ITS INTERACTION WITH TRRAP IN CANCER” (priority 2019, published 2026).

Chain of MYC:TRRAP interaction (P01106 16-205): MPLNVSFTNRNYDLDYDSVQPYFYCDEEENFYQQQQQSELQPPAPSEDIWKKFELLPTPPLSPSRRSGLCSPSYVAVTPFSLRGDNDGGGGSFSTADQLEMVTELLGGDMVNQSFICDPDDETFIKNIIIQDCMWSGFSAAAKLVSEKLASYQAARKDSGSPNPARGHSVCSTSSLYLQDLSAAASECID
Chain of MYC:TRRAP interaction (Q9Y4A5 2051-2301): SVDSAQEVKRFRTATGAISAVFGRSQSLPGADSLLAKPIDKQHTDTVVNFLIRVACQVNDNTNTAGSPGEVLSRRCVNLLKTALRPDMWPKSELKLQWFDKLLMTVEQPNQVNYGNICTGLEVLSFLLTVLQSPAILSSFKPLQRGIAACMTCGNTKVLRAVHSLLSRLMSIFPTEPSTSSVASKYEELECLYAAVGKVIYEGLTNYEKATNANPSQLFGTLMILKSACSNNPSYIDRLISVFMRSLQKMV

One assay concerns the target MYC:TRRAP interaction (Homo sapiens, UniProt P01106+Q9Y4A5). Put plainly: MYC:TRRAP in-cell luminescence complementation assay (NanoBiT; SmB-MYC 1-190 and TRRAP 2033-2283-LgB in HeLa cells). The class given is cell-based. The note with it: Table 1; 46 primary hits at 10 uM; HeLa cells; triplicate measurements. As to the method: HeLa cells plated on Greiner 96-well TC-rated white plates with clear bottoms were used for the following measurements. Reverse transfections were carried out using LipoD293™ before cells were plated. A bluescript KS' plasmid (Addgene) was used as carrier DNA for transfections, and a pcDNA3.1 EGFP plasmid (ThermoFisher) was used as a fluorescence reporter. White light-reflecting film (USA Scientific) was used to cover the bottom of the plates for luminescence measurements. Black light-absorbing film was used to cover the top of the plates for fluorescence measurements. All measurements were taken on a SpectraMax i3 instrument (Molecular Devices).
Transfections were carried out with increasing DNA amounts (1-100 ng per well) of a CMV-driven LgB plasmid and SmB in excess or vice-versa. Background luminesce for the usable range and the amount of DNA needed for vast excess of LgB or SmB were noted. Next, complementation with vast excess either LgB or SmB was used to determine the expression of each of the indicated MYC and TRRAP constructs for a range of DNA amounts per well: 10-100 ng. An optimal ratio of DNA to equalize the expression of each MYC and TRRAP pair was calculated. Then, signal-to-noise ratios were calculated for the indicated MYC and TRRAP pairs, and the pair with the highest ratio was chosen. Finally, the chosen pair was used to determine the optimal DNA transfection mixture. It was determined to be 6.7 ng of a plasmid with a MYC construct, 60 ng of a plasmid with a TRRAP construct and 33.3 ng of the pcDNA 3.1 EGFP plasmid, for each well in a 96-well plate. Unless otherwise indicated, these were the ratios of DNA transfected for this type of assay.
HeLa cells were transfected as above using LipoD293™ with a mixture of SmB-MYC 1-190, TRRAP 2033-2283-LgB, and EGFP in CMV-driven plasmids at the same optimized ratio described above. Two days post-transfection, the media in each well was replaced with fresh media containing each compound from the NCI's sets at 25 μM. Cells were incubated for 2 h with each compound, and luminescence and fluorescence measurements were recorded for each well. Changes in luminescence were normalized to fluorescence. The following pre-plated compound sets were obtained from the NCI/DTP chemical repository and used for this screen:
These chemical sets were used to discover novel small-molecule inhibitors of the MYC:TRRAP complex. SmB-MYC 1-190, TRRAP 2033-2283-LgB, and EGFP were transfected into HeLa cells. Two days post-transfection, compounds were added to the media at 25 μM and cells were incubated for 2h. Luminescence and fluorescence were recorded for each well containing one of the compounds. Changes in luminescence measurements were normalized to fluorescence measurements.
Afterwards, only molecules that reduced luminescence levels to <50% RLU were considered. This set of 46 compounds were incubated at 10 μM with vector-expressing cells. Luminescence complementation was measured and repeated in triplicate measurements. In addition, HeLa cells expressing LgB and SmB alone were incubated with the same compounds to rule out potentially artificial results due to inhibition of luciferase or its complementation. Molecules that induces any significant reduction in luminescence (<0.6) during this control assay were not considered further. Of 2947 molecules, 17 were chosen for further testing and ordered from the NCI/DTP Open Chemical Repository. FIG. 16 describes these chosen compounds.
Using the luminescence assay above as a readout for the MYC:TRRAP interaction, we used a robotic liquid handler to evaluate 2987 additional compounds (25 μM). All primary hits were counter-screened for any activity against the luciferase enzyme itself and for any effects on the expression of the fusion proteins. We set a threshold of 50% inhibition to consider compounds further. Only 17 out of 2987 passed all these criteria (0.6%). […]
Regarding `CC(C)(C)c1cc(C=C(C#N)C#N)cc(C(C)(C)C)c1O` [Compound 25, 2-[(3,5-ditert-butyl-4-hydroxyphenyl)methylidene] propanedinitrile], the “% Inhibition 10 uM” value was 42.52%.

As for `COc1cc(O)c2c(c1)C(=O)c1cc3c(c(O)c1C2=O)C(OC1OC(C)C(O)C(O)C1OC)C(OC)C(C)(O)C3=O` (stereo not drawn) [Compound 22, 4-(4,5-dihydroxy-3-methoxy-6-methyloxan-2-yl)oxy-2,5,7-trihydroxy-3,9-dimethoxy-2-methyl-3,4-dihydrotetracene-1,6,11-trione], the “% Inhibition 10 uM” value was 52.48%. Still for that read-out and setting: for `CCN(CC)Cc1cc(/N=N/c2c(O)ccc3c(/N=N/c4ccc(O)c(CN(CC)CC)c4)c(O)ccc23)ccc1O.Cl` [Compound 15, 1,5-bis[[3-(diethyl-aminomethyl)-4-hydroxyphenyl]diazenyl] naphthalene-2,6-diol; hydrochloride] the value was 57.02%.

With `COC1=C(N)C(=O)c2nc(-c3nc(C(=O)O)c(C)c(-c4ccc(OC)c(OC)c4O)c3N)ccc2C1=O` [Compound 14, 5-amino-6-(7-amino-6-methoxy-5,8-dioxoquinolin-2-yl)-4-(2-hydroxy-3,4-dimethoxyphenyl)-3-methylpyridine-2-carboxylic acid], the “% Inhibition 10 uM” value is 40.78%. For `CN(C)c1ccc2c(c1)Sc1cc(N(C)C)ccc1N2C(=O)c1ccccc1` [Compound 44, [3,7-bis(dimethylamino)phenothiazin-10-yl]-phenylmethanone], the “% Inhibition 10 uM” value is reported as 93.68%. For the compound `COc1c2c(cc3c1C1Oc4c(ccc(O)c4CC=C(C)C)C1CO3)OC(C)(C)C=C2` (stereo not drawn) [Compound 45, 21-methoxy-17,17-dimethyl-5-(3-methylbut-2-enyl)-3,12,16-trioxapentacyclo [11.8.0.02,10.04, 9.015,20] henicosa-1(13),4(9),5,7, 14,18, 20-heptaen-6-ol], the “% Inhibition 10 uM” value is given as 85.82%. The same measure, in the same setting: in the case of `CN(C)c1ccc(C=C2C=C(c3ccc4c(c3)CCCC4)OC2=O)cc1` (stereo in doubt) [Compound 46, (3Z)-3-[[4-(dimethylamino)phenyl]methylidene]-5-(5,6,7,8-tetrahydro-naphthalen-2-yl)furan-2-one] it was 96.48%. Still for that read-out and setting: in the case of `COC(=O)c1c[nH]c2c1-c1cc(C(=O)OCc3ccccc3)n(S(=O)(=O)c3ccc(C)cc3)c1C(=O)C2=O` [Compound 7, 2-O-benzyl 8-O-methyl 3-(4-methylphenyl) sulfonyl-4,5-dioxo-6H-pyrrolo[3,2-e]indole-2,8-dicarboxylate] it was 16.02%.

The assay is the same for the next values; noted with them: Table 2; compounds with >80% similarity to compound 10 (NSC657456); 10 uM.
For `NC(=O)/N=N/c1c(O)[nH]c2ccccc12` [Compound 107, (2-hydroxy-1H-indol-3-yl)iminourea], the “% Inhibition 10 uM” value is on record as 112.6%.

Take `N=C(S)/N=N/c1c(O)[nH]c2ccccc12` [Compound 101, (2-hydroxy-1H-indol-3-yl)iminothiourea]: the “% Inhibition 10 uM” value amounted to 104.5%.

As to `Oc1[nH]c2ccccc2c1/N=N/C1=NCCCCN1` [Compound 1037, 3-(4,5,6,7-tetrahydro-1H-1,3-diazepin-2-yldiazenyl)-1H-indol-2-ol; hydroiodide], the “% Inhibition 10 uM” value came to 85.49%. Same read-out and setting: in the case of `O=[N+]([O-])c1ccc(-c2csc(N=Nc3c(O)[nH]c4ccccc34)n2)cc1` [Compound 1023, 3-[[4-(4-nitrophenyl)-1,3-thiazol-2-yl]diazenyl]-1H-indol-2-ol] it was 47.93%; in that of `CN(C)C(=S)/N=N/c1c(O)[nH]c2ccccc12` [Compound 108], 86.25%; in that of `N#CC(=N)/C(C#N)=N/c1c(O)[nH]c2ccccc12` [Compound 1017, N′-(2-hydroxy-1H-indol-3-yl)ethane-diimidoyl dicyanide], 89.13%.

Regarding `N=C(/N=N/c1c(O)[nH]c2ccccc12)C(=N)/N=N/c1c(O)[nH]c2ccccc12` [Compound 103, 1-N,2-N-bis[(2-hydroxy-1H-indol-3-yl)imino]ethane-diimidamide], the “% Inhibition 10 uM” value turned out to be 88.83%.
